Measured values taken from ChEMBL document CHEMBL3044577, “Evaluation of biological activity of new hemiesters of 17-hydroxy-16,17-secoestra-1,3,5(10)-triene-16-nitrile” (Med Chem Res, 2011).
The source made the active and inactive calls. The rule behind the calls is not given here.

Columns and labels:
MCF7 [1] = assay: Growth inhibition of Homo sapiens (human) MCF-7 cells at 10^-12 to 10^-7 M after 48 hr by MTT assay; assay type: functional
HT-29 [2] = assay: Growth inhibition of Homo sapiens (human) HT-29 cells at 10^-12 to 10^-6 M after 48 hr by MTT assay; assay type: functional; design: concentration or dose not given beside the values
MCF7 [3] = assay: Induction of Homo sapiens (human) MCF7 cell growth at 10^-6 M after 48 hr by MTT assay; conditions: mcf7, 48 h, 1 µM
MCF7 [4] = assay: Growth inhibition of Homo sapiens (human) MCF-7 cell growth at 10^-6 M after 48 hr by MTT assay; assay type: functional, cell-based
MDA-MB-231 = assay type: functional, Homo sapiens
Description: Growth inhibition of Homo sapiens (human) MDA-MB-231 cells at 10^-12 to 10^-6 M after 48 hr by MTT assay

Aromatase [5] = biological target: T1, Aromatase (Rattus norvegicus, UniProt P22443); assay: Inhibition of aromatase in Rattus norvegicus (rat) PMSG-treated denucleated ovarian fraction using testosterone as substrate at 10 uM after 15 min by radioimmuno assay; conditions: 0.25 h
T1 sequence (P22443 whole entry): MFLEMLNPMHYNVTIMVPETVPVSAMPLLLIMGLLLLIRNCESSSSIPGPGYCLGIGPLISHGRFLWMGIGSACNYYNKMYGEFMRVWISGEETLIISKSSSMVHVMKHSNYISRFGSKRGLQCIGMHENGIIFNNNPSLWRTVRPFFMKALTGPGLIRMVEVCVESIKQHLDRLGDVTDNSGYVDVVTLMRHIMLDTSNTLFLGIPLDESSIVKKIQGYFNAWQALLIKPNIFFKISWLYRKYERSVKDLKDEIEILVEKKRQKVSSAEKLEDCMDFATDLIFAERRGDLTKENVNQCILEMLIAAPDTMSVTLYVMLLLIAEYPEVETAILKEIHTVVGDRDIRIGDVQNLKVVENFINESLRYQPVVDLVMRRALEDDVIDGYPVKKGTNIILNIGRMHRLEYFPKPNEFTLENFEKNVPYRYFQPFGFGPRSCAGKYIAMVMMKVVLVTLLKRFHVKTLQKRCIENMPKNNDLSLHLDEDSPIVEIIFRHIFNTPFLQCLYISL

Rattus norvegicus [6] = assay: Antiestrogenic activity in female Rattus norvegicus Wistar (rat) assessed as decrease in estradiol benzoate-induced uterine weight at 5 mg/kg, sc QD for 3 days relative to control; assay type: functional; conditions: 72 h, route subcutaneous
Aromatase [7] = biological target: T1, Aromatase; assay: Inhibition of aromatase in Rattus norvegicus (rat) PMSG-treated denucleated ovarian fraction using testosterone as substrate at 50 uM after 15 min by radioimmuno assay; conditions: 0.25 h
MCF7 [8] = assay: Growth inhibition of Homo sapiens (human) MCF-7 cells at 10^-12 to 10^-6 M after 48 hr by MTT assay; assay type: functional
[9] = Growth inhibition of Homo sapiens (human) MRC5 cells at 10^-12 to 10^-6 M after 48 hr by MTT assay; assay type: cell-based; conditions: read-out: GI
Rattus norvegicus [10] = assay: Estrogenic activity in female Rattus norvegicus Wistar (rat)assessed as change in uterine weight at 5 mg/kg, sc QD for 3 days relative to control; conditions: in vivo, 72 h
Rattus norvegicus [11] = assay: Antiestrogenic activity in female Rattus norvegicus Wistar (rat) assessed as decrease in estradiol benzoate-induced uterine weight at 25 mg/kg, sc QD for 3 days relative to control; assay type: functional; conditions: 72 h, route subcutaneous
Rattus norvegicus [12] = assay: Estrogenic activity in female Rattus norvegicus Wistar (rat) assessed as change in uterine weight at 25 mg/kg, sc QD for 3 days relative to control; conditions: in vivo, 72 h
HT-29 [13] = assay: Growth inhibition of Homo sapiens (human) HT-29 cells at 10^-12 to 10^-9 M after 48 hr by MTT assay; assay type: functional, cell-based
MRC5 = assay: Cytotoxicity against Homo sapiens (human) MRC5 cells at 10^-12 to 10^-6 M after 48 hr by MTT assay; assay type: cell-based; conditions: mrc5, 48 h
MCF7 [14] = assay: Growth inhibition of Homo sapiens (human) MCF-7 cells at 10^-12 to 10^-9 M after 48 hr by MTT assay; assay type: functional

| inhibition at 10 µM (Aromatase [5]) [%] | inhibition at 50 µM (Aromatase [7]) [%] | Activity (Rattus norvegicus [10]) [%] | Structure (SMILES) | growth inhibition (GI) (MCF7 [1]) | growth inhibition (GI) (HT-29 [2]) | Activity (MCF7 [3]) | growth inhibition (GI) (MCF7 [4]) | growth inhibition (GI) (MDA-MB-231) [%] | inhibition in vivo at 5 mg/kg (Rattus norvegicus [6]) [%] | growth inhibition (GI) (MCF7 [8]) [%] | inhibition at 48 h [9] [%] | inhibition in vivo at 25 mg/kg (Rattus norvegicus [11]) [%] | Activity (Rattus norvegicus [12]) [%] | growth inhibition (GI) (HT-29 [13]) | Activity (MRC5) | growth inhibition (GI) (MCF7 [14]) [%] |
| --- | --- | --- | --- | --- | --- | --- | --- | --- | --- | --- | --- | --- | --- | --- | --- | --- |
| – | – | – | C[C@]12CC[C@@H]3c4ccc(O)cc4CC[C@H]3[C@@H]1CC[C@@H]2O [ESTRADIOL] | 10% | 20% | Non-toxic | inactive | – | – | – | – | – | – | – | – | – |
| 16.6 | 67.3 | -9.63 | C[C@]1(COC(=O)CCCC(=O)O)CC[C@@H]2c3ccc(O)cc3CC[C@H]2[C@@H]1CC#N | – | 10% | – | – | 10 | 13.8 | 10 | 10 | – | – | – | – | – |
| 7.02 | 21.2 | -2.28 | C[C@]1(COC(=O)CCC(=O)O)CC[C@@H]2c3ccc(OCc4ccccc4)cc3CC[C@H]2[C@@H]1CC#N | – | 40% | – | – | 40 | 2.82 | 40 | 40 | – | – | – | – | – |
| -10.6 | 0.1 | -6.78 | C[C@]1(COC(=O)CCC(=O)O)CC[C@@H]2c3ccc(O)cc3CC[C@H]2[C@@H]1CC#N | – | 30% | – | – | 30 | 41.6 | 30 | – | 11.9 | 6.42 | – | – | – |
| – | – | 0.71 | C[C@]1(CO)CC[C@@H]2c3ccc(OCc4ccccc4)cc3CC[C@H]2[C@@H]1CC#N | – | – | – | – | – | 31.5 | – | – | – | – | – | – | – |
| – | – | -2.06 | C[C@]1(CO)CC[C@@H]2c3ccc(O)cc3CC[C@H]2[C@@H]1CC#N | – | – | – | – | – | 21.1 | – | – | – | – | – | – | – |
| 17.9 | 88.2 | -3.92 | C[C@]1(COC(=O)CCCC(=O)O)CC[C@@H]2c3ccc(OCc4ccccc4)cc3CC[C@H]2[C@@H]1CC#N | – | – | – | – | – | 8.5 | – | – | – | – | Active | Non-toxic | 20 |

| Structure (SMILES) | inhibition at 10 µM (Aromatase [5]) [%] | inhibition at 50 µM (Aromatase [7]) [%] | Activity (Rattus norvegicus [10]) [%] | growth inhibition (GI) (MCF7 [1]) | growth inhibition (GI) (HT-29 [2]) | Activity (MCF7 [3]) | growth inhibition (GI) (MCF7 [4]) | growth inhibition (GI) (MDA-MB-231) [%] | inhibition in vivo at 5 mg/kg (Rattus norvegicus [6]) [%] | growth inhibition (GI) (MCF7 [8]) [%] | inhibition at 48 h [9] [%] | inhibition in vivo at 25 mg/kg (Rattus norvegicus [11]) [%] | Activity (Rattus norvegicus [12]) [%] | growth inhibition (GI) (HT-29 [13]) | Activity (MRC5) | growth inhibition (GI) (MCF7 [14]) [%] |
| --- | --- | --- | --- | --- | --- | --- | --- | --- | --- | --- | --- | --- | --- | --- | --- | --- |
| CC/C(=C(\c1ccccc1)c1ccc(OCCN(C)C)cc1)c1ccccc1.O=C(O)CC(O)(CC(=O)O)C(=O)O [TAMOXIFEN CITRATE] | – | – | 39.78 | Active | Active | Non-toxic | inactive | 30 | – | – | – | 62.8 | 39.36 | – | – | – |
